{"source": "patent US10583119B2", "about": "“Compounds, compositions and methods for making the same” (Signum Biosciences, Inc., priority 2008, dated 2020)", "key": {"[1]": {"test_system": "MPTP Mouse Model of Parkinson's Disease", "assay": "MPTP-induced neurotoxicity in MPTP mouse model of Parkinson's disease (striatal tyrosine hydroxylase ELISA)", "format": "in vivo, C57BL/6J mice", "conditions": "acute MPTP 10 mg/kg four times, striatum", "description": "MPTP (1-methyl-4-phenyl-1,2,3,6-tetrahydropyridine) is routinely used as a chemical agent that induces Parkinson's disease-like neurodegeneration in cellular and animal models. Both Parkinson's Disease and MPTP-induced neurotoxicity are associated with a number of different biomarkers including reduction of tyrosine hydroxylase levels and activity. Tyrosine hydroxylase is a key enzyme in the dopamine biosynthesis pathway as it is involved in the conversion of tyrosine to […]. Tyrosine hydroxylase activity is regulated by its phosphorylation status and PP2A is known to be involved in this regulation.\nC57BL/6J mice, aged 2-3 months were fed ad libitum, either standard rodent chow (Control), or rodent chow formulated with 0.1 g Compound I-63, or 0.001 g Compound I-63 per 100 g chow (0.1% and 0.001% Compound I-63, respectively); water was changed weekly. Mice were housed at 23° C., on a 12 hour light and dark cycle, with 6 mice per cage. After 2 weeks, 8-12 mice each from the Control, 0.1% Compound 1-63 and 0.001% Compound I-63 groups were injected with either saline, or 10 mg/kg MPTP i.e., four times, every 2 hours, on the same day. Mice were then maintained on their respective feeds for another week, at which point they were sacrificed by cervical dislocation and brains dissected for biochemical analyses.\nStriatal tyrosine hydroxylase (TH) content was measured by ELISA as follows. Ninety-six well microliter plates (Thermo Labsystems) were incubated overnight at 4° C. with monoclonal anti-TH antibody (1:500; Calbiochem) in 8 mM sodium phosphate, 2 mM potassium phosphate, and 0.14 M sodium chloride, pH 7.4 (PBS). Wells were washed four times with PBS and then blocked for 1 hour using 5% (w/v) Carnation (Nestle) nonfat dry milk in PBS. Striatal tissue samples were homogenized by sonication in PBS-0.5% Triton X-100 (PBST) with 0.25% (w/v) SDS. […] The reaction product was measured fluorometrically within the linear range of detection (excitation:emission ratio of 530:580 nm). […] Data were expressed as percent TH levels in MPTP-treated mice relative to saline-injected mice. […]"}, "[2]": {"test_system": "Thyl-alpha-synuclein transgenic mice", "assay": "Locomotor tests (open field, rota-rod) in alpha-synuclein over-expressing mice", "format": "in vivo", "conditions": "0.001% diet (p=0.068)", "protocol": "Transgenic mice over-expressing the full length human alpha-synuclein have been described previously, and are excellent models for sensorimotor tests that are sensitive to alterations in the nigrostriatal dopaminergic system [Fleming, S. M. et. al, J. Neurosci. 24, 9434-40, (2004)].\nThyl-alpha-synuclein transgenic mice (9-12 weeks old) and age-matched wild type mice were housed in clear plastic cages in a temperature-, and humidity-controlled environment with a 12 hour-light/dark cycle (light switched on at 7 a.m.), and were maintained on an ad libitum diet of lab chow and water. The animal feeds used were either normal (Control) or formulated with Compound I-63 at 0.001% and 0.1%. […]\nLocomotor activity was assessed in an open field paradigm by a Digiscan activity monitor utilizing a grid of infrared beams that record the location and path of the animal (horizontal activity) as well as the number of rearing movements (vertical activity). […] Each mouse was then placed in the middle of an open field chamber (42×42 cm acrylic animal cages, AccuScan Instruments) and locomotion was recorded for 10 min. The infrared light beam sensors were connected to a computer that recorded animal position every millisecond. […] The total number of squares crossed by each mouse was recorded and average horizontal and vertical activities was determined for each group of mice. […]"}}, "data": [{"smiles": "CCCCCCCCCCCCCCCCCCCC(=O)NCCc1c[nH]c2ccc(O)cc12", "note": "[Compound I-63, N-(2-(5-hydroxy-1H-indol-3-yl)ethyl)icosanamide]", "values": [{"measurement": "rescuing of the tyrosine hydroxylase defect", "setting": "[1]; 0.001% diet", "result": "approximately 20%"}, {"measurement": "rescuing of the tyrosine hydroxylase defect", "setting": "[1]; 0.1% diet", "result": "approximately 20%"}, {"measurement": "horizontal activity", "setting": "[2]", "result": "increase"}]}]}
